Here are results for 4 compounds from ChEMBL document CHEMBL1201862, “PubChem BioAssay data set” (2004).

As a reminder, the IC50 is the concentration that inhibits the measured activity by half. One may read the AC50 as the concentration at which the activity in the assay is half-maximal.

Calls of active or inactive are those of the source. Rule as the data show it, for most assays here: actives have a measured IC50 and inactives only a lower limit.

The target in test [1] is T1, Caspase-3 (Homo sapiens, UniProt P42574).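 Also: Dose-response selectivity test against caspase-3 for candidate inhibitors of sentrin-specific proteases (SENPs).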
T1 sequence (P42574 whole entry): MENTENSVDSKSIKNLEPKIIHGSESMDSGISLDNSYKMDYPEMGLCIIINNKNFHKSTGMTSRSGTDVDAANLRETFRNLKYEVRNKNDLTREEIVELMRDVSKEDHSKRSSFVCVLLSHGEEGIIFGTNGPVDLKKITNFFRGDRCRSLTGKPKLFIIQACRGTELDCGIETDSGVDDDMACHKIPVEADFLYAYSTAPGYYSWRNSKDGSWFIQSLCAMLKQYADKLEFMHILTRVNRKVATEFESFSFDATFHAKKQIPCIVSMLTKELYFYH
Type of test: functional.

In test [2] the target is T2, Sentrin-specific protease 7 (Homo sapiens, UniProt Q9BQF6).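 Also: Luminescence-based dose-response confirmation of ultra-high-throughput screening hits, measuring inhibition of SENP7.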
T2 sequence (Q9BQF6 whole entry): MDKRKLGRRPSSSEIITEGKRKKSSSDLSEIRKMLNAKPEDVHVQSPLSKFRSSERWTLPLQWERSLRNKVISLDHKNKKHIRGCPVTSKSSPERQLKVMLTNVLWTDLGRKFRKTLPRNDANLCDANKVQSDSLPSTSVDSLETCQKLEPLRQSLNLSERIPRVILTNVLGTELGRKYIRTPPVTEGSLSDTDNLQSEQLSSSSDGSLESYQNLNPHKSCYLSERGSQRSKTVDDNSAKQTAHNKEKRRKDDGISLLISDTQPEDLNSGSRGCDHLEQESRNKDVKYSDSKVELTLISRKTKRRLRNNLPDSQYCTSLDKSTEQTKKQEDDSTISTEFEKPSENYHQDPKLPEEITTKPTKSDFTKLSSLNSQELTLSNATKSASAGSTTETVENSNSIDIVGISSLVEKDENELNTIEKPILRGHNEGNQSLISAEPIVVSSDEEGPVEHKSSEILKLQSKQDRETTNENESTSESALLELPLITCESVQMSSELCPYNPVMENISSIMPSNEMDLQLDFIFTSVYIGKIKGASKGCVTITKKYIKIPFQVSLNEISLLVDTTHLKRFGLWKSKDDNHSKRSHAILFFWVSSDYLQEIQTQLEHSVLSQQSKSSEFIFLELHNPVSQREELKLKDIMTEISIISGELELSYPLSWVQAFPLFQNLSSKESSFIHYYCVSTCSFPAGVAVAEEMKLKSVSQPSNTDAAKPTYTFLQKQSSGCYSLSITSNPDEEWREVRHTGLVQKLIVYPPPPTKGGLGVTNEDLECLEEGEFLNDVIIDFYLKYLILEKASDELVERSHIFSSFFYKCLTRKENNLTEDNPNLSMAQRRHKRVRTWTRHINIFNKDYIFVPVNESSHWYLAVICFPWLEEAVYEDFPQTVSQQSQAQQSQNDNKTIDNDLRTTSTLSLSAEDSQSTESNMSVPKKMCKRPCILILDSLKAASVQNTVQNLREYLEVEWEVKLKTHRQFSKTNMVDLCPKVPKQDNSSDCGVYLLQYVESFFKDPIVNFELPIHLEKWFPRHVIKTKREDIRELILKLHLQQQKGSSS
Type of test: functional.

Test [3] addresses T3, Sentrin-specific protease 6 (Homo sapiens, UniProt Q9GZR1).
T3 sequence (Q9GZR1 whole entry): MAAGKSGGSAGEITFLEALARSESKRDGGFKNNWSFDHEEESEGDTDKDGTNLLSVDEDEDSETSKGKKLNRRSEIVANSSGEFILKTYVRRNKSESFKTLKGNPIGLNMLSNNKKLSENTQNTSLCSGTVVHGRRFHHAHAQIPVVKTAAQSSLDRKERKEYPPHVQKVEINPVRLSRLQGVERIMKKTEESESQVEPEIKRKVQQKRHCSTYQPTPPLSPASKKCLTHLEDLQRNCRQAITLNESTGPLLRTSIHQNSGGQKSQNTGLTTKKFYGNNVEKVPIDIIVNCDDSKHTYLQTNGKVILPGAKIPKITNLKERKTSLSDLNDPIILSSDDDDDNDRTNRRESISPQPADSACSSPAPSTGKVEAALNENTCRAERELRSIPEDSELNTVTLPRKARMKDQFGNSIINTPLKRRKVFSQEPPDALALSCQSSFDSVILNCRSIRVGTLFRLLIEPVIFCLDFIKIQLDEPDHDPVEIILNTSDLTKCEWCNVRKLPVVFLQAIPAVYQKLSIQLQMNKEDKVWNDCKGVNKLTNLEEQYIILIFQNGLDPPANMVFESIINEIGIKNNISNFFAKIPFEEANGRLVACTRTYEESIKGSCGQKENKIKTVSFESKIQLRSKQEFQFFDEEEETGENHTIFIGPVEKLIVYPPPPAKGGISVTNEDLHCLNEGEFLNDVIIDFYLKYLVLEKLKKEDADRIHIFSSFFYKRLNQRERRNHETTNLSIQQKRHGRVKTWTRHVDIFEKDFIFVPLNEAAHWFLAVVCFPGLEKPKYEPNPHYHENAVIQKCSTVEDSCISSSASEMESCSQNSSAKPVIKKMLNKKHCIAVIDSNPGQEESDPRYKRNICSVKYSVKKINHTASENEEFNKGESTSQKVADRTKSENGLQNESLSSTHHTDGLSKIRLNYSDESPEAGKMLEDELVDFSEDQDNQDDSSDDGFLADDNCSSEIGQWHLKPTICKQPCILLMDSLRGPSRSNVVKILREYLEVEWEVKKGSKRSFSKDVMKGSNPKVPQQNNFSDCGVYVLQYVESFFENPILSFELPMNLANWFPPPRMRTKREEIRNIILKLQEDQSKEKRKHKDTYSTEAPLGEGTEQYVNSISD
Type of test: functional.

The target of test [4] is T4, Sentrin-specific protease 8 (Homo sapiens, UniProt Q96LD8).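 Also: luminescence read-out of SENP8 inhibition, dose-response confirmation following an ultra-high-throughput screen.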
T4 sequence (Q96LD8 whole entry): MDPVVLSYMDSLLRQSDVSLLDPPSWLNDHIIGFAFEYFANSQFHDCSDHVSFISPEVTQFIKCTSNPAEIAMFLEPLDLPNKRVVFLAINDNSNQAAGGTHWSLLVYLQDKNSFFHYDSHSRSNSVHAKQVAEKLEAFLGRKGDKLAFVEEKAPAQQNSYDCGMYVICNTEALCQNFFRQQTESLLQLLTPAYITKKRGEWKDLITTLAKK
It counts as functional.

Test [5] has as its system INS1. In words: beta cell apoptosis inhibitors, cytokine rescue, dose response, luminescence, retest (AID 449756).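 Also: cell death triggered by IL-1 beta plus TNF-alpha plus IFN-gamma mixture; protective hits raise ATP signal compared with cytokine alone wells.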 Type of test: functional, cell-based. The conditions noted are these: Rattus norvegicus.
For test [6], the target named is T5, Ubiquitin-conjugating enzyme E2 N (Homo sapiens, UniProt P61088).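 Also: Dose-response confirmation in a TR-FRET assay detecting UBC13-driven polyubiquitin chain formation, inhibition measured.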
T5 sequence (P61088 whole entry): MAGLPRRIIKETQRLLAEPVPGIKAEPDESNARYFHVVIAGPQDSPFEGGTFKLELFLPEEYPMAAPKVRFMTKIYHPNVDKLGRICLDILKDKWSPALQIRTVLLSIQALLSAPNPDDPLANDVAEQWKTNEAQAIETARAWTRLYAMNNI
Type of test: functional.

The target in test [7] is Tyrosyl-DNA phosphodiesterase 2 (Homo sapiens, UniProt O95551). In words: human TDP2 enzyme inhibitors, dose response, biochemical, epi absorbance, IC50 (AID 743297).
Sequence of Tyrosyl-DNA phosphodiesterase 2 (O95551 whole entry): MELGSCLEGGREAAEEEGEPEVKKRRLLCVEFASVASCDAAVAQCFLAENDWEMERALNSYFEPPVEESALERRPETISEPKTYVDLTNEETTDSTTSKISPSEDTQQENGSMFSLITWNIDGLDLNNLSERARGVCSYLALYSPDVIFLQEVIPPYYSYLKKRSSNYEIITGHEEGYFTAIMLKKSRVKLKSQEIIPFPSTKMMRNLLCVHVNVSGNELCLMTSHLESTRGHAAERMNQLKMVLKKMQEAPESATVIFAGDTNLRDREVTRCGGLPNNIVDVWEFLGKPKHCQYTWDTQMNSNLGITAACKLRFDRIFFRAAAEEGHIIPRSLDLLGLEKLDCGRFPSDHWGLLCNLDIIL

In the case of `COc1cc(OC)c(NC2=CC(=O)C(=O)c3ccccc32)cc1Cl`, the IC50 was 12.2 µM (active) in test [1], 4.56 µM (active) in test [2], 2.25 µM (active) in test [3] and 3.62 µM (active) in test [4]. Besides, in test [5], the AC50 was 3.57 µM (active).

As for `CCCCCCCCCCOC(=O)Cn1c(COc2cccc(OC)c2)[n+](C)c2ccccc21`, the IC50 in test [6] is > 20 µM (inactive). Also, the AC50 in test [5] was 2.94 µM (active).

With `CCc1ccc(S(=O)(=O)/N=C2\C=C(Nc3cccc(C(=O)O)c3)C(=O)c3ccccc32)cc1`, the IC50 in test [7] is 2.2 µM (active).

In the case of `COc1cc2c(cc1OC)-c1c(OC)c(OC)cc3c1C(C2)N(C)CC3` (stereo not drawn), the IC50 in test [1] is 0.907 µM (active); in test [2] it was 4.63 µM (active); in test [3], 1.86 µM (active); in test [4], 5.47 µM (active); in test [7], 4.6 µM (active).
